Where two headings read alike, the source gives them in different places.

One experiment deals with EGFR Del19/C797S (Homo sapiens, UniProt P00533, C797S/DEL746-750). In words: Biochemical EGFR kinase inhibition assay (Lance Ultra TR-FRET), double mutant del19/C797S. The method, boiled down: (§1)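 In this biochemical assay, phosphorylation after a one-hour room-temperature reaction was detected with europium-labelled anti-phosphopeptide antibody at 2 nM final concentration.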

The target in the next experiment is EGFR wildtype (WT) (Homo sapiens, UniProt P00533). Briefly: Biochemical EGFR kinase inhibition assay (Lance Ultra TR-FRET), wildtype. In short, it runs like this:
as §1

The target in another experiment is EGFR Del19/T790M/C797S (Homo sapiens, UniProt P00533, C797S/DEL746-750/T790M). Briefly: Biochemical EGFR kinase inhibition assay (Lance Ultra TR-FRET), triple mutant del19/T790M/C797S. The method, boiled down: as §1
A further experiment deals with EGFR L858R/C797S (Homo sapiens, UniProt P00533, C797S/L858R). In words: Biochemical EGFR kinase inhibition assay (Lance Ultra TR-FRET), double mutant L858R/C797S. In short, it runs like this:
as §1

A further experiment has as its target EGFR L858R/T790M/C797S (Homo sapiens, UniProt P00533, C797S/L858R/T790M). Briefly: Biochemical EGFR kinase inhibition assay (Lance Ultra TR-FRET), triple mutant L858R/T790M/C797S. The method, boiled down:
as §1

The mark [1] stands for this setting: IC50 Del19/C797S (nM), 100 μM ATP.
[2] abbreviates: IC50 Del19/T790M/C797S (nM), 100 μM ATP.
Setting [3] is: IC50 L858R/C797S (nM), 100 μM ATP.
[4] abbreviates: IC50 L858R/T790M/C797S (nM), 100 μM ATP.
Setting [5] is: ATP at Km, read-out: IC50 Del19/C797S (nM), Km ATP.
Setting [6] is: ATP at Km, read-out: IC50 WT (nM), Km ATP.
[7] abbreviates: ATP at Km, read-out: IC50 Del19/T790M/C797S (nM), Km ATP.
[8] abbreviates: ATP at Km, read-out: IC50 L858R/C797S (nM), Km ATP.
Where [9] appears, read: ATP at Km, read-out: IC50 L858R/T790M/C797S (nM), Km ATP.
The mark [10] stands for this setting: Km ATP, read-out: IC50 Del19/C797S (nM), Km ATP.
Where [11] appears, read: Km ATP, read-out: IC50 WT (nM), Km ATP.
The mark [12] stands for this setting: Km ATP, read-out: IC50 Del19/T790M/C797S (nM), Km ATP.
[13] abbreviates: Km ATP, read-out: IC50 L858R/C797S (nM), Km ATP.
[14] abbreviates: Km ATP, read-out: IC50 L858R/T790M/C797S (nM), Km ATP.

Chain of EGFR L858R/C797S (P00533 25-1210 C797S/L858R): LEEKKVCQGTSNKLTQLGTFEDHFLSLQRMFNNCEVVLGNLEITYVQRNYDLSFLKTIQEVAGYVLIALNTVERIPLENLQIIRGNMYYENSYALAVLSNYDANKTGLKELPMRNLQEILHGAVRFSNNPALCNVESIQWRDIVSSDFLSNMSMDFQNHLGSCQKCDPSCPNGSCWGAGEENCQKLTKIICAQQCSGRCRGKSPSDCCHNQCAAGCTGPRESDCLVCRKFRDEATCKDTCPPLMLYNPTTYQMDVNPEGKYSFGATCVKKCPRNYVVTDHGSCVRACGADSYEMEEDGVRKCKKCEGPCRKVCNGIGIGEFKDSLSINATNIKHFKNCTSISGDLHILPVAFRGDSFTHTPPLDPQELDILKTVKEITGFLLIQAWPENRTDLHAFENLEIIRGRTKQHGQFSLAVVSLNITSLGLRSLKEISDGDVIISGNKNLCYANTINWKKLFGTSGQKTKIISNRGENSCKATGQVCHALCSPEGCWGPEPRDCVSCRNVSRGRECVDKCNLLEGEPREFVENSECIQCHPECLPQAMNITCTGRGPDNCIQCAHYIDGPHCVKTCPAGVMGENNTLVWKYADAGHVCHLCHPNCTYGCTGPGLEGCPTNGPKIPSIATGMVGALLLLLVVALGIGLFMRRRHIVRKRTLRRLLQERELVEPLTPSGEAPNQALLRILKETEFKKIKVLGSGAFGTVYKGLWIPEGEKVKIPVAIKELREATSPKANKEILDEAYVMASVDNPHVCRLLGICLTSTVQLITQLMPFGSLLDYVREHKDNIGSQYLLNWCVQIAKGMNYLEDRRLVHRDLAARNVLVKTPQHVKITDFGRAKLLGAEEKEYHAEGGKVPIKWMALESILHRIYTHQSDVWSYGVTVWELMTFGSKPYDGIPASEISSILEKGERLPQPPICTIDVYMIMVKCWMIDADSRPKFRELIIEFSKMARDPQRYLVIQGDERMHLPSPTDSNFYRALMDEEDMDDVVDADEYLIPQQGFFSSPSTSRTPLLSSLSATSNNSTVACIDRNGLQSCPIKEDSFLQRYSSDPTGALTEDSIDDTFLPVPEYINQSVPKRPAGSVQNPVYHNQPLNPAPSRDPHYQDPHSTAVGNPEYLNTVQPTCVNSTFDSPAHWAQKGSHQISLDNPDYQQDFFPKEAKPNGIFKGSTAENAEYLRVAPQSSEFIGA
Chain of EGFR Del19/C797S (P00533 with tags, fused parts or gaps DEL746-750/C797S): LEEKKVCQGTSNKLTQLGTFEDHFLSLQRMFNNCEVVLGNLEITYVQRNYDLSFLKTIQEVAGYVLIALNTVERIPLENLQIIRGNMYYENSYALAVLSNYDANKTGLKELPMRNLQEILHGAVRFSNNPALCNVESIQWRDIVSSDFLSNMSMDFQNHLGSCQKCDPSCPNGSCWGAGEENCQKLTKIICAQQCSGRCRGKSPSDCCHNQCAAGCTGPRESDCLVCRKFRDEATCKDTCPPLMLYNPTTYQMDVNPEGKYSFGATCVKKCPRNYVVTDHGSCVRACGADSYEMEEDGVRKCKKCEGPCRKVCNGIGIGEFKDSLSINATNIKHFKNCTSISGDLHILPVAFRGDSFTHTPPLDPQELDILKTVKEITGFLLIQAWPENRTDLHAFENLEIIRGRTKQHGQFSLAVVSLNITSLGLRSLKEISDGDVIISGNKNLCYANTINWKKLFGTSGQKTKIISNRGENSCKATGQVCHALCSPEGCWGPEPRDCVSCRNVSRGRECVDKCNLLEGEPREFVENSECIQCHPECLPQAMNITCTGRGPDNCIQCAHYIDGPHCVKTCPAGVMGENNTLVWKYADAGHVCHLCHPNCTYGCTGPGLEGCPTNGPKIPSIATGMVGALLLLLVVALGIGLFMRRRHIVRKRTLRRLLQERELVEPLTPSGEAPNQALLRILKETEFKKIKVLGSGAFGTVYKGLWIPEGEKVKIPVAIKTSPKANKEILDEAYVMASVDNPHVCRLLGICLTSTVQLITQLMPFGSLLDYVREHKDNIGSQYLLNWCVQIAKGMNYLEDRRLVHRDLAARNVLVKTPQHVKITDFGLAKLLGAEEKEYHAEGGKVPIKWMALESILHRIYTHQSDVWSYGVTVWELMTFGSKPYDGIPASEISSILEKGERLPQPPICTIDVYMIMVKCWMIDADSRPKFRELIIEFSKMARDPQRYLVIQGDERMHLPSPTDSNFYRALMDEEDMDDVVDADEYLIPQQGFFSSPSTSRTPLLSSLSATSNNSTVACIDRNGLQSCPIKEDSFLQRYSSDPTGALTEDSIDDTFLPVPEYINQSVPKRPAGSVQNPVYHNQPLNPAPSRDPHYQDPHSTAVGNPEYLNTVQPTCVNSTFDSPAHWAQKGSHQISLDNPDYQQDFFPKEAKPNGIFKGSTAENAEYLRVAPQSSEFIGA
Chain of EGFR L858R/T790M/C797S (P00533 25-1210 T790M/C797S/L858R): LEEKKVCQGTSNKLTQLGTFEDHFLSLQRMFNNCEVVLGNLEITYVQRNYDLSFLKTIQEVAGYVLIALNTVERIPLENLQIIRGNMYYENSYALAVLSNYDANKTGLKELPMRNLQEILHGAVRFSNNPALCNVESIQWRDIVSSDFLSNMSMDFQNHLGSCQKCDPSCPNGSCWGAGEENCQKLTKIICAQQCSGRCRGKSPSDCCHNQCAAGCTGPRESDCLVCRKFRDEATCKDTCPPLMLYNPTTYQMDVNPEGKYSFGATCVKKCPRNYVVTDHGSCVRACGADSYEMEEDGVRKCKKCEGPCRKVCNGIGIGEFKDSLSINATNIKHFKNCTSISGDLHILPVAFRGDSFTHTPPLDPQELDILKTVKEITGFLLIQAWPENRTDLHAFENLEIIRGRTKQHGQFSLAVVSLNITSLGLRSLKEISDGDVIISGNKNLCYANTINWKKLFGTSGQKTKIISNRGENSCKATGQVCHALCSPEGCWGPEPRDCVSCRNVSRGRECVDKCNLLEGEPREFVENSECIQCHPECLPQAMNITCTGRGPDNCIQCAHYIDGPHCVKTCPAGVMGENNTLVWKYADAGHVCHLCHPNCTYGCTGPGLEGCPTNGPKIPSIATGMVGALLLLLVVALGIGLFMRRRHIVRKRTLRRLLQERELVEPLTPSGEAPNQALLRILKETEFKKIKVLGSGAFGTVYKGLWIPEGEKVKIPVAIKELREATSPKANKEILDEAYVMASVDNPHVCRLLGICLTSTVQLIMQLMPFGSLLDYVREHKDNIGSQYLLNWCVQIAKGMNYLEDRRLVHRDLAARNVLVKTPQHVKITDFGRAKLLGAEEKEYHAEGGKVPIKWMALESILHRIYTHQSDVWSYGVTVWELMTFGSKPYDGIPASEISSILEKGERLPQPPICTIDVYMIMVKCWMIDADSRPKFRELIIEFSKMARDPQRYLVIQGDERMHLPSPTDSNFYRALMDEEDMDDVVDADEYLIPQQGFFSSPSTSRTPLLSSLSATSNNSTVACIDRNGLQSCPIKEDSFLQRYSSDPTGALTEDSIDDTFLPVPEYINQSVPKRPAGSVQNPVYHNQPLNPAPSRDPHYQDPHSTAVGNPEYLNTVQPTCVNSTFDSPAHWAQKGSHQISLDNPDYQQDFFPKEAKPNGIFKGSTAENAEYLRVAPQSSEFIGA
Chain of EGFR wildtype (WT) (P00533 25-1210): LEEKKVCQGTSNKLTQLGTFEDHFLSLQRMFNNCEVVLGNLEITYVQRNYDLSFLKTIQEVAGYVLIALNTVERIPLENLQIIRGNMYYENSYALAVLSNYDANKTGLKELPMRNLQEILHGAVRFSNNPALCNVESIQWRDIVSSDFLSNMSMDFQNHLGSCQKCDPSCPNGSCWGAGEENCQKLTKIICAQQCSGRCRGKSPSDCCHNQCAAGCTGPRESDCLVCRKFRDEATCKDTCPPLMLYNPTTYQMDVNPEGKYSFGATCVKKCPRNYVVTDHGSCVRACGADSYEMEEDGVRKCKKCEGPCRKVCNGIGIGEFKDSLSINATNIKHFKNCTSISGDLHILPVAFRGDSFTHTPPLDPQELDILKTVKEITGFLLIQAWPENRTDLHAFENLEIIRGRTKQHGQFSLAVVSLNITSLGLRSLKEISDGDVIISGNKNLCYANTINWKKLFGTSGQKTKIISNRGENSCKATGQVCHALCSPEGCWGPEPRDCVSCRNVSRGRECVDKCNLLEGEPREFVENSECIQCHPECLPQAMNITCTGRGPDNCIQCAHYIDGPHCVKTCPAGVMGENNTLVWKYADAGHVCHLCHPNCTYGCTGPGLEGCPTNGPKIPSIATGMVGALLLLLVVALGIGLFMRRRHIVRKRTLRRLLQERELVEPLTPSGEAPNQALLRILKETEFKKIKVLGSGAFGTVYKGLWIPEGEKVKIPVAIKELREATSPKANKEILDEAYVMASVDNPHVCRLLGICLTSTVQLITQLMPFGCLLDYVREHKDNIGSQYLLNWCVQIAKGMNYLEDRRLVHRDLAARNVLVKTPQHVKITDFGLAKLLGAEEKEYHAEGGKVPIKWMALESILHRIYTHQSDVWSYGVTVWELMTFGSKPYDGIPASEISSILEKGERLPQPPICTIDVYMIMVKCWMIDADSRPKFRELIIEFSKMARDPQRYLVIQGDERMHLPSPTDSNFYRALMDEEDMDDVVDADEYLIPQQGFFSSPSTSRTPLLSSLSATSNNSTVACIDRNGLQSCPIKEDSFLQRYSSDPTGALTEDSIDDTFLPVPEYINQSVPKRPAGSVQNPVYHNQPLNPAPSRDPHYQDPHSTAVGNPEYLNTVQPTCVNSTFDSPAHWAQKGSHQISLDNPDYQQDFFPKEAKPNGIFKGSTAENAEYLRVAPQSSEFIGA

With `CN(C)CCNC1CCN(c2cc(Nc3ccnc(-c4cnn(S(=O)(=O)C5CC5)c4)n3)ncc2C#Cc2cnn(C)c2)CC1` [Example 133, N^1-(1-(2-((2-(1-(Cyclopropylsulfonyl)-1H-pyrazol-4-yl)pyrimidin-4-yl)amino)-5-((1-methyl-1H-pyrazol-4-yl)ethynyl)pyridin-4-yl)piperidin-4-yl)-N^2,N^2-dimethylethane-1,2-diamine], the IC50 at EGFR Del19/C797S (setting [1]) was 2.4 nM; at EGFR wildtype (WT) (IC50 WT (nM), 100 μM ATP) it was 3840 nM; on EGFR Del19/T790M/C797S (setting [2]), 0.3 nM; at EGFR L858R/C797S (setting [3]) it was 3.5 nM; on EGFR L858R/T790M/C797S (setting [4]), 0.4 nM.
For `O=S(=O)(C1CC1)n1cc(-c2nccc(Nc3cc(N4CCC(O)CC4)c(C#Cc4cnn(CCF)c4)cn3)n2)cn1` [Example 28, 1-(2-((2-(1-(Cyclopropylsulfonyl)-1H-pyrazol-4-yl)pyrimidin-4-yl)amino)-5-((1-(2-fluoroethyl)-1H-pyrazol-4-yl)ethynyl)pyridin-4-yl)piperidin-4-ol], the IC50 was 4.9 nM against EGFR Del19/C797S (setting [1]); above 10000 nM against EGFR wildtype (WT) (IC50 WT (nM), 100 μM ATP); 0.7 nM at EGFR Del19/T790M/C797S (setting [2]); 28.1 nM against EGFR L858R/C797S (setting [3]); 2.3 nM at EGFR L858R/T790M/C797S (setting [4]).
On to `C#Cc1cnc(Nc2ccnc(-c3cnn(S(=O)(=O)C4CC4)c3)n2)cc1N1CCC(C)(CO)CC1` [Example 247, (1-(2-((2-(1-(Cyclopropylsulfonyl)-1H-pyrazol-4-yl)pyrimidin-4-yl)amino)-5-ethynylpyridin-4-yl)-4-methylpiperidin-4-yl)methanol], for which the IC50 on EGFR Del19/C797S (setting [5]) was determined as 1.3 nM; against EGFR Del19/C797S (setting [1]) it was 1.7 nM; at EGFR wildtype (WT) (setting [6]) it was 18.7 nM; against EGFR wildtype (WT) (IC50 WT (nM), 100 μM ATP) it was 8670 nM; at EGFR Del19/T790M/C797S (setting [7]), 0.1 nM; on EGFR Del19/T790M/C797S (setting [2]), 0.1 nM. The IC50 was 8.1 nM on EGFR L858R/C797S (setting [8]), 42.3 nM against EGFR L858R/C797S (setting [3]), 0.1 nM on EGFR L858R/T790M/C797S (setting [9]) and 0.5 nM against EGFR L858R/T790M/C797S (setting [4]).
Regarding `O=S(=O)(C1CC1)n1cc(-c2nccc(Nc3cc(N[C@H]4CCC[C@H](O)C4)c(C#Cc4ccsc4)cn3)n2)cn1` [Example 225, (1 S,3S)-3-((2-((2-(1-(Cyclopropylsulfonyl)-1H-pyrazol-4-yl)pyrimidin-4-yl)amino)-5-(thiophen-3-ylethynyl)pyridin-4-yl)amino)cyclohexan-1-ol], the IC50 against EGFR Del19/C797S (setting [1]) was 87.8 nM; at EGFR wildtype (WT) (IC50 WT (nM), 100 μM ATP) it was above 10000 nM; against EGFR Del19/T790M/C797S (setting [2]), 6.4 nM; against EGFR L858R/C797S (setting [3]) it was 310 nM; against EGFR L858R/T790M/C797S (setting [4]), 12.3 nM.
In the same order, the values of `O=S(=O)(C1CC1)n1cc(-c2nccc(Nc3cc(N4CCC[C@H](O)C4)c(C#Cc4ccsc4)cn3)n2)cn1` [Example 228, (S)-1-(2-((2-(1-(Cyclopropylsulfonyl)-1H-pyrazol-4-yl)pyrimidin-4-yl)amino)-5-(thiophen-3-ylethynyl)pyridin-4-yl)piperidin-3-ol] are 274 nM, above 10000 nM, 6.2 nM, 494 nM and 21.8 nM.
As to `O=S(=O)(C1CC1)n1cc(-c2nccc(Nc3cc(NC4CCC(CO)CC4)c(C#CC4(F)CCOC4)cn3)n2)cn1` (centres unmarked) [Example 434, ((1s,4s)-4-((2-((2-(1-(Cyclopropylsulfonyl)-1H-pyrazol-4-yl)pyrimidin-4-yl)amino)-5-((3-fluorotetrahydrofuran-3-yl)ethynyl)pyridin-4-yl)amino)cyclohexyl)methanol], the IC50 against EGFR Del19/C797S (setting [1]) was 5.2 nM; on EGFR Del19/C797S (setting [10]) it was 2.3 nM; at EGFR wildtype (WT) (IC50 WT (nM), 100 μM ATP) it was 8890 nM; at EGFR wildtype (WT) (setting [11]), 21.2 nM; against EGFR Del19/T790M/C797S (setting [2]) it was 0.3 nM; on EGFR Del19/T790M/C797S (setting [12]), 0.4 nM. Further, the IC50 at EGFR L858R/C797S (setting [3]) worked out at 125 nM; at EGFR L858R/C797S (setting [13]), 2.4 nM; against EGFR L858R/T790M/C797S (setting [4]), 0.5 nM; on EGFR L858R/T790M/C797S (setting [14]), 0.2 nM.
With `Cn1cc(C#Cc2cnc(Nc3ccnc(-c4cnn(S(=O)(=O)C5CC5)c4)n3)cc2N2CCC3(CCNCC3)C2)cn1` [Example 154, 2-(1-(Cyclopropylsulfonyl)-1H-pyrazol-4-yl)-N-(5-((1-methyl-1H-pyrazol-4-yl)ethynyl)-4-(2,8-diazaspiro[4.5]decan-2-yl)pyridin-2-yl)pyrimidin-4-amine], the IC50 stood at 6 nM at EGFR Del19/C797S (setting [5]); 12 nM against EGFR Del19/C797S (setting [1]); 44.4 nM at EGFR wildtype (WT) (setting [6]); 6720 nM on EGFR wildtype (WT) (IC50 WT (nM), 100 μM ATP); 0.4 nM on EGFR Del19/T790M/C797S (setting [7]); 1.4 nM against EGFR Del19/T790M/C797S (setting [2]). Also, the IC50 at EGFR L858R/C797S (setting [8]) stood at 6.4 nM; on EGFR L858R/C797S (setting [3]), 145 nM; at EGFR L858R/T790M/C797S (setting [9]), 0.3 nM; on EGFR L858R/T790M/C797S (setting [4]), 4.3 nM.
In the case of `CC1(CO)CCN(c2cc(Nc3ccnc(-c4cnn(S(=O)(=O)C5CC5)c4)n3)ncc2C#CC2CCO[C@H]2C(F)(F)F)CC1` (stereo partly drawn) [Example 421, (1-(2-((2-(1-(Cyclopropylsulfonyl)-1H-pyrazol-4-yl)pyrimidin-4-yl)amino)-5-(((2R)-2-(trifluoromethyl)tetrahydrofuran-3-yl)ethynyl)pyridin-4-yl)-4-methylpiperidin-4-yl)methanol], the IC50 was 5.8 nM at EGFR Del19/C797S (setting [1]); 4 nM on EGFR Del19/C797S (setting [10]); above 10000 nM against EGFR wildtype (WT) (IC50 WT (nM), 100 μM ATP); 35.1 nM at EGFR wildtype (WT) (setting [11]); 1.8 nM against EGFR Del19/T790M/C797S (setting [2]); 1.5 nM at EGFR Del19/T790M/C797S (setting [12]). For the same molecule, the IC50 against EGFR L858R/C797S (setting [3]) was 117 nM; on EGFR L858R/C797S (setting [13]), 17.2 nM; against EGFR L858R/T790M/C797S (setting [4]), 2.3 nM; at EGFR L858R/T790M/C797S (setting [14]), 0.8 nM.
For the molecule `Cn1cc(C#Cc2cnc(Nc3ccnc(-c4cnn(S(=O)(=O)C5CC5)c4)n3)cc2N2CCC(F)(C(F)(F)F)CC2)cn1` [Example 66, 2-(1-(Cyclopropylsulfonyl)-1H-pyrazol-4-yl)-N-(4-(4-fluoro-4-(trifluoromethyl)piperidin-1-yl)-5-((1-methyl-1H-pyrazol-4-yl)ethynyl)pyridin-2-yl)pyrimidin-4-amine], the IC50 against EGFR Del19/C797S (setting [1]) is 114 nM; against EGFR wildtype (WT) (IC50 WT (nM), 100 μM ATP), above 10000 nM; against EGFR Del19/T790M/C797S (setting [2]), 9 nM; on EGFR L858R/C797S (setting [3]), 350 nM; against EGFR L858R/T790M/C797S (setting [4]) it was 31.1 nM.
For the molecule `Cn1ncc(C#Cc2cnc(Nc3ccnc(-c4cnn(S(=O)(=O)C5CC5)c4)n3)cc2N2CCC(CCO)CC2)c1C1CC1` [Example 87, 2-(1-(5-((5-Cyclopropyl-1-methyl-1H-pyrazol-4-yl)ethynyl)-2-((2-(1-(cyclopropylsulfonyl)-1H-pyrazol-4-yl)pyrimidin-4-yl)amino)pyridin-4-yl)piperidin-4-yl)ethan-1-ol], the IC50 on EGFR Del19/C797S (setting [1]) is 26.3 nM; on EGFR wildtype (WT) (IC50 WT (nM), 100 μM ATP) it was above 10000 nM; against EGFR Del19/T790M/C797S (setting [2]) it was 2.3 nM; at EGFR L858R/C797S (setting [3]), 40.5 nM; against EGFR L858R/T790M/C797S (setting [4]), 6.2 nM.
As to `CC1(O)CCN(c2cc(Nc3ccnc(-c4cnn(S(=O)(=O)C5CC5)c4)n3)ncc2C#CC2CCS(=O)(=O)C2)CC1` (centres unmarked) [Example 429, 3-((6-((2-(1-(Cyclopropylsulfonyl)-1H-pyrazol-4-yl)pyrimidin-4-yl)amino)-4-(4-hydroxy-4-methylpiperidin-1-yl)pyridin-3-yl)ethynyl)tetrahydrothiophene 1,1-dioxide], the IC50 at EGFR Del19/C797S (setting [1]) worked out at 3.4 nM; on EGFR Del19/C797S (setting [10]) it was 4.9 nM; against EGFR wildtype (WT) (IC50 WT (nM), 100 μM ATP) it was 6020 nM; at EGFR wildtype (WT) (setting [11]), 38.9 nM; at EGFR Del19/T790M/C797S (setting [2]) it was 0.5 nM; on EGFR Del19/T790M/C797S (setting [12]), 0.2 nM. For the same molecule, the IC50 on EGFR L858R/C797S (setting [3]) is 39.7 nM; on EGFR L858R/C797S (setting [13]), 4.8 nM; at EGFR L858R/T790M/C797S (setting [4]), 0.3 nM; at EGFR L858R/T790M/C797S (setting [14]) it was 0.2 nM.

Source of the values: patent US11981658B2, “Substituted aminopyridine compounds as EGFR inhibitors” (YUHAN CORPORATION, priority 2021, dated 2024).
